{"source": "patent US6362191B1", "about": "“Aminometyl oxooxazolidinyl benzene derivatives” (Zeneca Ltd., priority 1997, dated 2002)", "key": {"[1]": {"tested_on": "Bacillus subtilis", "test": "MIC by agar-dilution, in-vitro antibacterial test", "format": "cell-based", "settings": "10^4 CFU/spot", "from_the_text": "(§1) The following results were obtained on a standard in-vitro test system. The activity is described in terms of the minimum inhibitory concentration (MIC) determined by the agar-dilution technique with an inoculum size of 10^4 CFU/spot."}, "[2]": {"tested_on": "Enterococcus faecalis", "test": "MIC by agar-dilution, in-vitro antibacterial test", "format": "cell-based", "settings": "agar with 5% defibrinated horse blood, 10^4 CFU/spot, 37° C., 5% carbon dioxide, 48 hours", "description": "(§2) The following results were obtained on a standard in-vitro test system. The activity is described in terms of the minimum inhibitory concentration (MIC) determined by the agar-dilution technique with an inoculum size of 10^4 CFU/spot. Streptococci and enterococci were tested on agar supplemented with 5% defibrinated horse blood, an inoculum of 10^4 CFU/spot and an incubation temperature of 37° C. in an atmosphere of 5% carbon dioxide for 48 hours—blood is required for the growth of some of the test organisms."}, "[3]": {"tested_on": "Streptococcus pyogenes C203", "test": "MIC by agar-dilution, in-vitro antibacterial test", "format": "cell-based", "settings": "agar with 5% defibrinated horse blood, 10^4 CFU/spot, 37° C., 5% carbon dioxide, 48 hours", "description": "as §2"}, "[4]": {"tested_on": "Coagulase Negative Staphylococci MS (methicillin sensitive)", "test": "MIC by agar-dilution, in-vitro antibacterial test", "format": "cell-based", "settings": "type MS (methicillin sensitive), 10^4 CFU/spot, 37° C., 24 hours", "description": "as §1\n(§3) Staphylococci were tested on agar, using an inoculum of 10^4 CFU/spot and an incubation temperature of 37° C. for 24 hours—standard test conditions for the expression of methicillin resistance."}, "[5]": {"tested_on": "Staphylococcus aureus MRQR (methicillin resistant quinoione resistant)", "test": "MIC by agar-dilution, in-vitro antibacterial test", "format": "cell-based", "settings": "type MRQR, 10^4 CFU/spot, 37° C., 24 hours", "description": "as §1, §3"}, "[6]": {"tested_on": "Staphylococcus aureus Novb. Res. (Novobiocin resistant)", "test": "MIC by agar-dilution, in-vitro antibacterial test", "format": "cell-based", "settings": "type Novb. Res. (Novobiocin resistant), 10^4 CFU/spot, 37° C., 24 hours", "description": "as §1, §3"}, "[7]": {"tested_on": "Coagulase Negative Staphylococci MR (methicillin resistant)", "test": "MIC by agar-dilution, in-vitro antibacterial test", "format": "cell-based", "settings": "type MR (methicillin resistant), 10^4 CFU/spot, 37° C., 24 hours", "description": "as §1, §3"}, "[8]": {"tested_on": "Staphylococcus aureus Oxford", "test": "MIC by agar-dilution, in-vitro antibacterial test", "format": "cell-based", "settings": "type Oxford, 10^4 CFU/spot, 37° C., 24 hours", "description": "as §1, §3"}}}
{"smiles": "CC(=O)NC[C@H]1CN(c2ccc(C(=O)c3cnc4sccn34)cc2)C(=O)O1", "note": "[Example 10, N-([(5S)-N-(4[imidazo[2,1-b]thiazol-5-ylcarbonyl]phenyl)-2-oxooxazolidin-5-yl]methyl)acetamide]", "values": [{"measurement": "MIC", "setting": "[1]", "value": 0.125, "unit": "µg/mL"}, {"measurement": "MIC", "setting": "[2]", "value": 0.25, "unit": "µg/mL"}, {"measurement": "MIC", "setting": "[3]", "value": 0.03, "unit": "µg/mL"}, {"measurement": "MIC", "setting": "[4]", "value": 0.06, "unit": "µg/mL"}, {"measurement": "MIC", "setting": "[5]", "value": 0.5, "unit": "µg/mL"}, {"measurement": "MIC", "setting": "[6]", "value": 0.13, "unit": "µg/mL"}, {"measurement": "MIC", "setting": "[7]", "value": 0.13, "unit": "µg/mL"}, {"measurement": "MIC", "setting": "[8]", "value": 0.13, "unit": "µg/mL"}]}
{"smiles": "CC(=O)NC[C@H]1CN(c2ccc(C(=O)c3cnc4c([N+](=O)[O-])cccn34)cc2)C(=O)O1", "note": "[Example 16, N-([(5S)-N-(4-[8-nitroimidazo[1,2-a]pyridin-3-ylcarbonyl]phenyl)-2-oxooxazolidin-5-yl]methyl)acetamide]", "values": [{"measurement": "melting point", "value": "229 to 230", "unit": "°C"}]}
{"smiles": "COC(=O)c1cccn2c(C(=O)c3ccc(N4C[C@H](CNC(C)=O)OC4=O)cc3)cnc12", "note": "[Example 23, N-([(5S)-N-(4-[8-methoxycarbonylimidazo[1,2-a]pyridin-3-ylcarbonyl]phenyl)-2-oxooxazolidin-5-yl]methyl)acetamide]", "values": [{"measurement": "melting point", "value": "202 to 204", "unit": "°C"}]}
{"smiles": "CC(=O)NC[C@H]1CN(c2ccc(C(=O)c3cnc4cnccn34)cc2)C(=O)O1", "note": "[Example 45, N-([(5S)-N-(4-[imidazo[1,2-a]pyrazin-3-ylcarbonyl]phenyl)-2-oxooxazolidin-5-yl]methyl)acetamide]", "values": [{"measurement": "melting point", "value": "254 to 256", "unit": "°C"}]}
{"smiles": "COC(=O)c1ccc2ncc(C(=O)c3ccc(N4C[C@H](CNC(C)=O)OC4=O)cc3)n2c1", "note": "[Example 24, N-([(5S)-N-(4-[6-methoxycarbonylimidazo[1,2-a]pyridin-3-ylcarbonyl]phenyl)-2-oxooxazolidin-5-yl]methyl)acetamide]", "values": [{"measurement": "melting point", "value": "231 to 233", "unit": "°C"}]}
{"smiles": "CC(=O)NC[C@H]1CN(c2ccc(C(=O)c3cc(C#N)c4ccccn34)cc2)C(=O)O1", "note": "[Example 12, N-([(5S)-N-(4-[1-cyanoindolizin-3-ylcarbonyl]phenyl)-2oxooxazolidin-5-yl]methyl)acetamide]", "values": [{"measurement": "melting point", "value": "255 to 257", "unit": "°C"}]}
{"smiles": "CC(=O)NC[C@H]1CN(c2ccc(C(=O)c3ccc4ccc(C)cn34)cc2)C(=O)O1", "note": "[Example 2, N-([(5S)-N-(4-[6-methylindolizin-3-ylcarbonyl]phenyl)-2-oxooxazolidin-5-yl]methyl)acetamide]", "values": [{"measurement": "melting point", "value": "237 to 239", "unit": "°C"}]}
{"smiles": "CC(=O)NC[C@H]1CN(c2ccc(C(=O)c3cnc4ccc(F)cn34)cc2)C(=O)O1", "note": "[Example 27, N-([(5S)-N-(4-[6-fluoroimidazo[1,2-a]pyridin-3-ylcarbonyl]phenyl)-2-oxooxazolidin-5-yl]methyl)acetamide]", "values": [{"measurement": "melting point", "value": "224 to 226", "unit": "°C"}]}
{"smiles": "CC(=O)NC[C@H]1CN(c2ccc(C(=O)c3cnc4ccc(Br)cn34)cc2)C(=O)O1", "note": "[Example 8, N-([(5S)-N-(4-[6-bromoimidazo[1,2-a]pyridin-3-ylcarbonyl]phenyl)-2-oxooxazolidin-5-yl]methyl)acetamide]", "values": [{"measurement": "melting point", "value": "230 to 232", "unit": "°C"}]}
{"smiles": "CC(=O)NC[C@H]1CN(c2ccc(C(=O)c3cnc4ncccn34)cc2)C(=O)O1", "note": "[Example 6, N-([(5S)-N-(4-[imidazo[1,2-a]pyrimidin-3-ylcarbonyl]phenyl)-2-oxooxazolidin-5-yl]methyl)acetamide]", "values": [{"measurement": "melting point", "value": "257 to 260", "unit": "°C"}]}
{"smiles": "CC(=O)NC[C@H]1CN(c2ccc(C(=O)c3cnc4cc(C)ccn34)cc2)C(=O)O1", "note": "[Example 13, N-([(5S)-N-(4-[7-methylimidazo[1,2-a]pyridin-3-ylcarbonyl]phenyl)-2-oxooxazolidin-5-yl]methyl)acetamide]", "values": [{"measurement": "melting point", "value": "254 to 256", "unit": "°C"}]}
{"smiles": "CC(=O)NC[C@H]1CN(c2ccc(C(=O)c3cnc4c(Cl)cc(Cl)cn34)cc2)C(=O)O1", "note": "[Example 11, N-([(5S)-N-(4-[6,8-dichloroimidazo[1,2-a]pyridin-3-ylcarbonyl]phenyl)-2-oxooxazolidin-5-yl]methyl)acetamide]", "values": [{"measurement": "melting point", "value": "228 to 229", "unit": "°C"}]}
{"smiles": "CC(=O)NC[C@H]1CN(c2ccc(C(=O)c3cnc4c(O)cccn34)cc2)C(=O)O1", "note": "[Example 26, N-([(5S)-N-(4-[8-hydroxyimidazo[1,2-a]pyridin-3-ylcarbonyl]phenyl)-2-oxooxazolidin-5-yl]methyl)acetamide]", "values": [{"measurement": "melting point", "value": "253 to 255 °C (dec.)"}]}
{"smiles": "CC(=O)NC[C@H]1CN(c2ccc(C(=O)c3cnc4ccccn34)c(F)c2)C(=O)O1", "note": "[Example 22, N-([(5S)-N-(4[imidazo[1,2-a]pyridin-3-ylcarbonyl]{3-fluorophenyl})-2-oxooxazolidin-5-yl]methyl)acetamide]", "values": [{"measurement": "melting point", "value": "196 to 198", "unit": "°C"}]}
{"smiles": "CC(=O)NC[C@H]1CN(c2ccc(C(=O)c3cnc4cnc(Br)cn34)cc2)C(=O)O1", "note": "[Example 43, N-([(5S)-N-(4-[6-bromoimidazo[1,2-a]pyrazin-3-ylcarbonyl]phenyl)-2-oxooxazolidin-5-yl]methyl)acetamide]", "values": [{"measurement": "melting point", "value": "216 to 220", "unit": "°C"}]}
{"smiles": "CC(=O)NC[C@H]1CN(c2ccc(C(=O)c3cnc4c5ccccc5ccn34)cc2)C(=O)O1", "note": "[Example 9, N-([(5S)-N-(4-[imidazo[2,1-a]isoquinol-3-ylcarbonyl]phenyl)-2-oxooxazolidin-5-yl]methyl)acetamide]", "values": [{"measurement": "melting point", "value": "239 to 240", "unit": "°C"}]}
{"smiles": "CC(=O)NC[C@H]1CN(c2ccc(C(=O)c3cnc4cc(-c5ccccc5)ccn34)cc2)C(=O)O1", "note": "[Example 25, N-([(5S)-N-(4-[7-phenylimidazo[1,2-a]pyridin-3-ylcarbonyl]phenyl)-2-oxooxazolidin-5-yl]methyl)acetamide]", "values": [{"measurement": "melting point", "value": "256 to 258", "unit": "°C"}]}
{"smiles": "CC(=O)NC[C@H]1CN(c2ccc(C(=O)c3cnc4c(OCc5ccccc5)cccn34)cc2)C(=O)O1", "note": "[Example 20, N-([(5S)-N-(4-[8-benzyloxyimidazo[1,2-a]pyridin-3-ylcarbonyl]phenyl)-2-oxooxazolidin-5-yl]methyl)acetamide]", "values": [{"measurement": "melting point", "value": "193 to 195", "unit": "°C"}]}
{"smiles": "CC(=O)NC[C@H]1CN(c2ccc(C(=O)c3cnc4ccc(Cl)nn34)cc2)C(=O)O1", "note": "[Example 44, N-([(5S)-N-(4-[6-chloroimidazo[1,2-b]pyridazin-3-ylcarbonyl]phenyl)-2-oxooxazolidin-5-yl]methyl)acetamide]", "values": [{"measurement": "melting point", "value": "194 to 196", "unit": "°C"}]}
{"smiles": "CC(=O)NC[C@H]1CN(c2ccc(C(=O)c3cnc4ccc([N+](=O)[O-])cn34)cc2)C(=O)O1", "note": "[Example 15, N-([(5S)-N-(4-[6-nitroimidazo[1,2-a]pyridin-3-ylcarbonyl]phenyl)-2-oxooxazolidin-5-yl]methyl)acetamide]", "values": [{"measurement": "melting point", "value": "223 to 225", "unit": "°C"}]}
{"smiles": "CC(=O)NC[C@H]1CN(c2ccc(C(=O)c3cnc4ccc(Cl)cn34)cc2)C(=O)O1", "note": "[Example 14, N-([(5S)-N-(4-[6-chloroimidazo[1,2-a]pyridin-3-ylcarbonyl]phenyl)-2-oxooxazolidin-5-yl]methyl)acetamide]", "values": [{"measurement": "melting point", "value": "234 to 235", "unit": "°C"}]}
{"smiles": "CC(=O)NC[C@H]1CN(c2ccc(C(=O)c3ccc[nH]3)cc2)C(=O)O1", "note": "[Example 47, N-([(5S)-N-(4-[pyrrol-2-ylcarbonyl]phenyl)-2-oxooxazolidin-5-yl]methyl)acetamide]", "values": [{"measurement": "melting point", "value": "202 to 205", "unit": "°C"}]}
{"smiles": "CC(=O)NC[C@H]1CN(c2ccc(C(=O)c3cnc4ccccn34)cc2)C(=O)O1", "note": "[Example 5, N-([(5S)-N-(4-[imidazo[1,2-a]pyridin-3-ylcarbonyl]phenyl)-2-oxooxazolidin-5-yl]methyl)acetamide]", "values": [{"measurement": "melting point", "value": "218 to 220", "unit": "°C"}]}
{"smiles": "CC(=O)NC[C@H]1CN(c2ccc(C(=O)c3ccc4cnc(C)cn34)cc2)C(=O)O1", "note": "[Example 4, N-([(5S)-N-(4-[3-methylpyrrolo[1,2-a]pyrazin-6-ylcarbonyl]phenyl)-2-oxooxazolidin-5-yl]methyl)acetamide]", "values": [{"measurement": "melting point", "value": "248 to 250", "unit": "°C"}]}
{"smiles": "CC(=O)NC[C@H]1CN(c2ccc(C(=O)c3cnc4nc(C)cc(C)n34)cc2)C(=O)O1", "note": "[Example 7, N-([(5S)-N-(4-[5,7-dimethylimidazo[1,2-a]pyrimidin-3-ylcarbonyl]phenyl)-2-oxooxazolidin-5-yl]methyl)acetamide]", "values": [{"measurement": "melting point", "value": "253 to 254", "unit": "°C"}]}
{"smiles": "CC(=O)NC[C@H]1CN(c2ccc(C(=O)c3cnc4c(Br)cc(C)cn34)cc2)C(=O)O1", "note": "[Example 19, N-([(5S)-N-(4-[8-bromo-6-methylimidazo[1,2-a]pyridin-3-ylcarbonyl]phenyl)2-oxooxazolidin-5-yl]methyl)acetamide]", "values": [{"measurement": "melting point", "value": "221 to 223", "unit": "°C"}]}
